Laboratory results from patent US6406720B1, “Cosmetic containing plant extracts” (Laboratoires Serobiologiques (Societe Anonyme), priority 1997, dated 2002).

Test system: tyrosinase
Assay: anti-tyrosinase action (oxidation of L-DOPA to DOPACHROME, Mason's method)
Assay type: biochemical
Settings: concentration which halves the initial speed of DOPACROME formation
Method: To determine the de-pigmenting power of the extracts, their tyrosinase action was evaluated by measuring the product of oxidising L-DOPA to DOPACHROME (by HS Mason's method, 1948), carrying out the following stages: […]
mixing tyrosinase with L-DOPA in the phosphate buffer with an automatic pipette recording the optical density at 475 nm for 2 minutes, then calculating the initial speed of the enzyme reaction and determining the C150 (concentration which halves the initial speed of DOPACROME formation).

## Oc1ccc(O)cc1 [Hydroquinone]
  C150 anti-tyrosinase effect in %: 0.025%
